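The compound was tested at five concentrations on cells cultured in 96-well plates, with a 48-hour exposure period. GI50 = concentration required for 50% inhibition of growth.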 Active and inactive are the calls of the source. Cut-off read from the data, not from the text of the source: active = GI50 up to about 1.1 µM and inactive = higher.
What was measured:
Assay in all cases: NCI-60 cell line screen, 48 h
M19-MEL = test system: M19-MEL
RXF 631 = test system: RXF 631
HOP-18 = test system: HOP-18
KM-20L2 = test system: KM-20L2
DLD-1 = test system: DLD-1
DMS-273 = test system: DMS-273
DMS-114 = test system: DMS-114
SNB-78 = test system: SNB-78
XF498 = test system: XF498

| SMILES | GI50 (M19-MEL) | GI50 (RXF 631) | GI50 (HOP-18) | GI50 (KM-20L2) | GI50 (DLD-1) | GI50 (DMS-273) | GI50 (DMS-114) | GI50 (SNB-78) | GI50 (XF498) |
| --- | --- | --- | --- | --- | --- | --- | --- | --- | --- |
| CCOC(=O)C1C(=S)NC(=O)C1C#N (stereo not drawn) | > 100 µM (inactive) | > 100 µM (inactive) | > 100 µM (inactive) | > 100 µM (inactive) | > 100 µM (inactive) | > 100 µM (inactive) | > 100 µM (inactive) |  |  |
| CNCCCCN(C)/[N+]([O-])=N\O | > 100 µM (inactive) | > 100 µM (inactive) | > 100 µM (inactive) | > 100 µM (inactive) | > 100 µM (inactive) | > 100 µM (inactive) | > 100 µM (inactive) | > 100 µM (inactive) |  |
| C/C(=N\NC(N)=S)c1ccc2c(c1)OCO2 | > 100 µM (inactive) | > 100 µM (inactive) | > 100 µM (inactive) | > 100 µM (inactive) | 61.9 µM (inactive) |  | 94.8 µM (inactive) | > 100 µM (inactive) | > 100 µM (inactive) |
| O=C(c1c(O)cc(O)cc1O)C1Cc2ccccc21 (stereo not drawn) | > 100 µM (inactive) |  | 3.18 µM (inactive) | > 100 µM (inactive) | > 100 µM (inactive) | 48.2 µM (inactive) | > 100 µM (inactive) | 58.7 µM (inactive) |  |
| COc1nc(NC2OC(COC(C)=O)C(OC(C)=O)C(OC(C)=O)C2OC(C)=O)c(/N=C(\C)C(C)=O)c(=O)n1C (stereo not drawn) | > 100 µM (inactive) |  | > 100 µM (inactive) | > 100 µM (inactive) | > 100 µM (inactive) | > 10 µM (inactive) | > 100 µM (inactive) | > 100 µM (inactive) | > 100 µM (inactive) |
| CC(=O)N1CCC2(c3ccccc3N(C(C)=O)C2c2ccc(O)cc2)C1C(=O)O (stereo not drawn) | > 100 µM (inactive) |  | > 100 µM (inactive) | > 100 µM (inactive) | > 100 µM (inactive) | > 100 µM (inactive) | > 100 µM (inactive) | > 100 µM (inactive) | > 100 µM (inactive) |
| Fc1ccccc1C1SCc2nc3ccccc3n21 (stereo not drawn) | 51.9 µM (inactive) | 31.3 µM (inactive) |  |  | 53.7 µM (inactive) | 31.3 µM (inactive) | 24.4 µM (inactive) | > 100 µM (inactive) |  |
| O=C1CCC2(c3ccc(Cl)cc3)Nc3ncccc3N12 (stereo not drawn) | > 100 µM (inactive) |  |  | > 100 µM (inactive) | > 100 µM (inactive) |  | > 100 µM (inactive) | 63 µM (inactive) | > 100 µM (inactive) |
| CC(C)(c1cn(Cc2ccccc2)c2ccccc12)c1cn(Cc2ccccc2)c2ccccc12 | > 100 µM (inactive) |  |  |  | 91.2 µM (inactive) |  | > 100 µM (inactive) | > 100 µM (inactive) |  |
| O=C(Cc1nc2ccccc2s1)Nc1ccc(Cl)cc1 | > 100 µM (inactive) |  |  | 50.6 µM (inactive) | 91.6 µM (inactive) | 84.7 µM (inactive) |  | > 100 µM (inactive) | > 100 µM (inactive) |
| CC(C)(C)OC1=C(OC(C)(C)C)C(O)(c2ccccc2)C1=O (stereo not drawn) | > 100 µM (inactive) | > 100 µM (inactive) | > 100 µM (inactive) |  | > 100 µM (inactive) | > 100 µM (inactive) | > 100 µM (inactive) | > 100 µM (inactive) |  |
| COC(=O)C1=C(C(=O)OC)C2(C3C(SC)=CC(C)(C)CC3S1)N(Cc1ccccc1)CCN2Cc1ccccc1 (stereo not drawn) | > 100 µM (inactive) | > 100 µM (inactive) | > 100 µM (inactive) | > 100 µM (inactive) | > 100 µM (inactive) | > 100 µM (inactive) | > 100 µM (inactive) | > 100 µM (inactive) | > 100 µM (inactive) |
| CCCCCCCCCCCC(=O)C1=C(O)CC(O)CC1=O (stereo not drawn) | > 100 µM (inactive) | > 100 µM (inactive) | > 100 µM (inactive) | > 100 µM (inactive) |  | 84.3 µM (inactive) | 64.3 µM (inactive) | > 100 µM (inactive) | > 100 µM (inactive) |
| CCN(CC)CCCC(C)Nc1c(Sc2cnc3cc(Cl)ccc3c2NC(C)CCCN(CC)CC)cnc2cc(Cl)ccc12 (stereo not drawn) | 1.62 µM (inactive) | 2.08 µM (inactive) | 2.17 µM (inactive) | 1.66 µM (inactive) | 1.91 µM (inactive) | 1.72 µM (inactive) |  | 2.73 µM (inactive) |  |
| C[N+](C)(C)CCC(=O)N1C/C(=C\c2ccccc2)C(=O)/C(=C/c2ccccc2)C1 | 4.81 µM (inactive) |  | 12.2 µM (inactive) | 8 µM (inactive) | 2.2 µM (inactive) | 2.19 µM (inactive) | 5.98 µM (inactive) | 6.65 µM (inactive) | 14.5 µM (inactive) |
| Cc1ccc(S(=O)(=O)C(CC(=O)N2CCCC2)C(=O)c2ccccc2)cc1 (stereo not drawn) |  | > 100 µM (inactive) | > 100 µM (inactive) |  | 71.1 µM (inactive) | 97.1 µM (inactive) | > 100 µM (inactive) | 54.6 µM (inactive) | > 100 µM (inactive) |
| N#COc1ccc(Oc2ccccc2)cc1 | > 100 µM (inactive) |  | > 100 µM (inactive) | > 100 µM (inactive) | > 100 µM (inactive) | 22.5 µM (inactive) | 31.1 µM (inactive) | 36.8 µM (inactive) | 97.3 µM (inactive) |
| CC(=O)OC1(C#N)CC2OC1C1C2N1C(=O)OC(C)(C)C (stereo not drawn) | > 100 µM (inactive) |  |  | > 100 µM (inactive) | > 100 µM (inactive) |  | > 100 µM (inactive) | > 100 µM (inactive) | > 100 µM (inactive) |
| Nc1ncnc2sc(Nc3ccccc3)nc12 | > 100 µM (inactive) | 9.86 µM (inactive) |  | 43.8 µM (inactive) | > 100 µM (inactive) | > 100 µM (inactive) |  | > 100 µM (inactive) | > 100 µM (inactive) |
| COc1ccc2c3c1C(=O)CCCC3CO2 (stereo not drawn) | > 100 µM (inactive) |  |  |  | > 100 µM (inactive) | > 100 µM (inactive) | > 100 µM (inactive) | > 100 µM (inactive) | > 100 µM (inactive) |
| CC(SC(=O)Nc1ccc(/N=N/c2ccccc2)cc1)C(=O)O (stereo not drawn) |  |  |  | > 100 µM (inactive) |  | 48.6 µM (inactive) | > 100 µM (inactive) | > 100 µM (inactive) |  |
| CN(C)c1ccc(/C=c2/sc3nc(=O)c(-c4ccccc4NC(=O)C(F)(F)F)nn3c2=O)cc1 | > 100 µM (inactive) |  |  |  | > 100 µM (inactive) | > 100 µM (inactive) | 20.6 µM (inactive) | > 100 µM (inactive) | > 100 µM (inactive) |
| CC1CCC2CC(=O)OC([C@@H]3C(=O)O[C@@H](C4=CCCC4)C4C(C)CCC43)C12 (stereo partly drawn) | > 100 µM (inactive) |  | > 100 µM (inactive) | 92.3 µM (inactive) | 84.5 µM (inactive) | > 100 µM (inactive) | 27.7 µM (inactive) | > 100 µM (inactive) | > 100 µM (inactive) |
| Oc1cccc(-c2cc(O)c3cc4c(cc3n2)OCO4)c1 | 1.49 µM (inactive) |  | > 100 µM (inactive) |  | 3.43 µM (inactive) | 1.09 µM (active) | 0.721 µM (active) | 1.03 µM (active) | 7.26 µM (inactive) |
| Nc1cccc(-c2cc(O)c3cc4c(cc3n2)OCO4)c1 | 0.931 µM (active) |  | 40.2 µM (inactive) |  |  | 0.889 µM (active) |  | 0.834 µM (active) | 7.26 µM (inactive) |
| Cc1c2cc[n+](C)cc2c(C)c2c1[nH]c1ccc(OCC(F)(F)F)cc12 | 2.14 µM (inactive) |  | 1.96 µM (inactive) | 3.15 µM (inactive) | 1.4 µM (inactive) | 1.25 µM (inactive) | 1.42 µM (inactive) | 0.622 µM (active) |  |

From ChEMBL document CHEMBL1201862, “PubChem BioAssay data set” (2004)
